Measured values from ChEMBL document CHEMBL6071152, “Design, synthesis, and biological evaluation of oridonin derivatives as novel NLRP3 inflammasome inhibitors for the treatment of acute lung injury” (Eur J Med Chem, 2024).
Active and inactive are the calls of the source. The calls are words filed in the database; no cut-off is given here.

Tests used:
[1] = system: Mus musculus; assay: (§1) Anti-inflammatory activity against LPS-stimulated acute lung injury C57BL/6 mouse model assessed as decrease in thickening of alveolar septa in right lung at 1 to 10 mg/kg, ip treated for 3 days and on third day administered with LPS at 30 mins post-compound challenge and measured after 12 hrs by Hematoxylin-Eosin staining analysis; format: functional, organism-based; conditions: dose 1-10 mg/kg, time 3.5 day
[2] = system: Mus musculus; assay: (§2) Anti-inflammatory activity against LPS-stimulated acute lung injury C57BL/6 mouse model assessed as decrease in IL-1 beta mRNA expression in right lung at 0.1 to 1 mg/kg, ip treated for 3 days and on third day administered with LPS at 30 mins post-compound challenge and measured after 12 hrs by RT-qPCR analysis; format: functional, organism-based; conditions: dose 0.1-1 mg/kg, time 3.5 day
[3] = system: Mus musculus; assay: Anti-inflammatory activity against LPS-stimulated acute lung injury C57BL/6 mouse model assessed as decrease in TNF-alpha level in serum at 0.1 to 1 mg/kg, ip treated for 3 days and on third day administered with LPS at 30 mins post-compound challenge and measured after 12 hrs by ELISA; format: functional, organism-based; conditions: dose 0.1-1 mg/kg, time 3.5 day
[4] = molecular target: NACHT, LRR and PYD domains-containing protein 3 (Mus musculus) (UniProt Q8R4B8); assay: Inhibition of NLRP3 inflammasome activation in ICR mouse BMDM assessed as inhibition of LPS/ATP-stimulated IL-1 beta expression in cell supernatant treated for 3 hrs with LPS followed by incubation with compound for 1 hr and later stimulated with ATP for 0.5 hrs by western blot analysis; format: cell-based; conditions: dose 0.2-5 µM, time 1.5 hrs
[5] = molecular target: NACHT, LRR and PYD domains-containing protein 3 (Homo sapiens, UniProt Q96P20); assay: Binding affinity to NLRP3 (unknown origin) by SPR assay
[6] = molecular target: NACHT, LRR and PYD domains-containing protein 3 (Mus musculus) (UniProt Q8R4B8); assay: Inhibition of NLRP3 inflammasome priming in ICR mouse BMDM assessed as inhibition of pro-IL-1 beta protein expression in cell lysate at 0.2 to 5 uM treated for 3 hrs with LPS followed by incubation with compound for 1 hr and later stimulated with ATP for 0.5 hrs by western blot analysis; format: subcellular; conditions: dose 0.2-5 µM, time 1.5 hrs
[7] = system: Mus musculus; assay: as §1, with “inflammatory cell infiltration” for “thickening of alveolar septa”; format: functional, organism-based; conditions: dose 1-10 mg/kg, time 3.5 day
[8] = molecular target: NACHT, LRR and PYD domains-containing protein 3 (Mus musculus) (UniProt Q8R4B8); assay: Inhibition of NLRP3 inflammasome priming in ICR mouse BMDM assessed as inhibition of NLRP3 protein expression in cell lysate at 0.2 to 5 uM treated for 3 hrs with LPS followed by incubation with compound for 1 hr and later stimulated with ATP for 0.5 hrs by western blot analysis; format: subcellular; conditions: dose 0.2-5 µM, time 1.5 hrs
[9] = molecular target: NACHT, LRR and PYD domains-containing protein 3 (Mus musculus) (UniProt Q8R4B8); assay: Inhibition of NLRP3 inflammasome priming in ICR mouse BMDM assessed as inhibition of pro-caspase-1 protein expression in cell lysate at 0.2 to 5 uM treated for 3 hrs with LPS followed by incubation with compound for 1 hr and later stimulated with ATP for 0.5 hrs by western blot analysis; format: subcellular; conditions: dose 0.2-5 µM, time 1.5 hrs
[10] = system: Mus musculus; assay: as §2, with “IL-18” for “IL-1 beta”; format: functional, organism-based; conditions: dose 0.1-1 mg/kg, time 3.5 day
[11] = molecular target: T1, Interferon-inducible protein AIM2 (Mus musculus) (UniProt Q91VJ1); assay: Inhibition of AIM2 inflammasome activation in ICR mouse BMDM assessed as inhibition of poly(dA:dT)-stimulated caspase-1 expression in cell supernatant at 1 uM treated for 3 hrs with LPS followed by incubation with compound for 1 hr and later cells transfected with poly(dA:dT) for 4 hrs by western blot analysis; format: cell-based; conditions: time 5.0 hrs
T1 sequence (whole entry): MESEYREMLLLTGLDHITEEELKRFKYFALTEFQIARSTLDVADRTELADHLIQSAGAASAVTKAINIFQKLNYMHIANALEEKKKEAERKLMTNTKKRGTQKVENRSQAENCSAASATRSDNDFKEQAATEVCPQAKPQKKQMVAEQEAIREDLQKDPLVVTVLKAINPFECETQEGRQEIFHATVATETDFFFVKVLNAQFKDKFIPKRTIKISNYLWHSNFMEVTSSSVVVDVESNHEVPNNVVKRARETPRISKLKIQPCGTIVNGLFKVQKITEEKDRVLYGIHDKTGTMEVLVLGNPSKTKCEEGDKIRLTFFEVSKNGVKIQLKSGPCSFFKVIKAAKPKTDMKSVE

NACHT, LRR and PYD domains-containing protein 3 (Mus musculus), sequence (Q8R4B8 whole entry, the tested form may be a part): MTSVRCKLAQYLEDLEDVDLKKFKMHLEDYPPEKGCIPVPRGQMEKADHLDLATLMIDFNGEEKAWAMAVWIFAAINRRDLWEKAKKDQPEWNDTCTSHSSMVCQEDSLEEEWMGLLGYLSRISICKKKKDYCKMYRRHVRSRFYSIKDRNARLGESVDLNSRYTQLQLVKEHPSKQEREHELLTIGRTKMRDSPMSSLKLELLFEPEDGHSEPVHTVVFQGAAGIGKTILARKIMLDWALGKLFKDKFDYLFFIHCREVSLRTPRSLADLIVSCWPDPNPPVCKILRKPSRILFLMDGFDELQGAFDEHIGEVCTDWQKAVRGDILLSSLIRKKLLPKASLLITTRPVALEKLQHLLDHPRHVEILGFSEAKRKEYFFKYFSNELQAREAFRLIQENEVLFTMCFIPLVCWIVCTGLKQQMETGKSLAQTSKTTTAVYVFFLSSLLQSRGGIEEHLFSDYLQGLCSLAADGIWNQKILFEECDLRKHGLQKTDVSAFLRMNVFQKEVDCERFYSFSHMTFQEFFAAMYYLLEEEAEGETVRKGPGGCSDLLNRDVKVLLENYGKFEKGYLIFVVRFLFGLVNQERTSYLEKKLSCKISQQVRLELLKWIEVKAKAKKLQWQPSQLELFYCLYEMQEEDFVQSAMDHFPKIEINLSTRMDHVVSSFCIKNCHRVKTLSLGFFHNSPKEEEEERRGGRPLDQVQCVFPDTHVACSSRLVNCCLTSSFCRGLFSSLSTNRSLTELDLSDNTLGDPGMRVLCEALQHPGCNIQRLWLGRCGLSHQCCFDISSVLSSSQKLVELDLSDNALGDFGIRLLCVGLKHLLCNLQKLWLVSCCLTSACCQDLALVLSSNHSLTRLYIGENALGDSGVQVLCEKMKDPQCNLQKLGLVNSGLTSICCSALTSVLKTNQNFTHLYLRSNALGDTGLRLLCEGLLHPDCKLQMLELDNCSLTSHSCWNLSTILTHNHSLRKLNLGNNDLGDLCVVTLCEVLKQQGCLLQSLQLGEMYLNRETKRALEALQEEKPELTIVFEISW
NACHT, LRR and PYD domains-containing protein 3, sequence (Q96P20 whole entry, the tested form may be a part): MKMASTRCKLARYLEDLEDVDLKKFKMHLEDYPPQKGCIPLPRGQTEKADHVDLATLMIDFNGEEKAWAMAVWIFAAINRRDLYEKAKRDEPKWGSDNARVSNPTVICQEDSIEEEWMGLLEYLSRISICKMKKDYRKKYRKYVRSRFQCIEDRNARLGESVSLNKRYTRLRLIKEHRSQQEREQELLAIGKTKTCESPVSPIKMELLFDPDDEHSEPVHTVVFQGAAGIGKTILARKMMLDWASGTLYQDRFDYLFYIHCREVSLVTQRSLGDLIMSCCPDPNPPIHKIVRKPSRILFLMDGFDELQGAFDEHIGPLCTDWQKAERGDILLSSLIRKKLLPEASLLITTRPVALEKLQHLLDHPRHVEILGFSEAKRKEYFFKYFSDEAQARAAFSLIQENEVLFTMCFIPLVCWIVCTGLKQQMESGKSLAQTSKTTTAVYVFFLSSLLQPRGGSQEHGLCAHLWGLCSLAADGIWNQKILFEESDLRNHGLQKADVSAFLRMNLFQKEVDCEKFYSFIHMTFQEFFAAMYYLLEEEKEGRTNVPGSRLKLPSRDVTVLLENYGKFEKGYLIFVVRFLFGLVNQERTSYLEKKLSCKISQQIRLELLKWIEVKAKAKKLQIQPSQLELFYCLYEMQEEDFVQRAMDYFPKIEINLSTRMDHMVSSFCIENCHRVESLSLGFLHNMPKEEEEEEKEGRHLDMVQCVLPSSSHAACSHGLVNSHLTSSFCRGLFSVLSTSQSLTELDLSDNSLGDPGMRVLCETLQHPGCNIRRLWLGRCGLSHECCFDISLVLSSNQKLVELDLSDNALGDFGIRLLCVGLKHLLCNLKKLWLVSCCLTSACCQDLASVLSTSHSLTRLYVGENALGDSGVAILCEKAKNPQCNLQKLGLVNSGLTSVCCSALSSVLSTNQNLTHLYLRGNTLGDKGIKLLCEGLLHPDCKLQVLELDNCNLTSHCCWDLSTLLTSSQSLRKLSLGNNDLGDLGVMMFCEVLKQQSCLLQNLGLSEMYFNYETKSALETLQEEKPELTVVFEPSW

C=C1C(=O)[C@]23[C@H](OC(=O)Nc4ccc(F)cc4)[C@H]1CC[C@H]2[C@]12C=CCC(C)(C)[C@H]1[C@H](O)[C@@]3(O)OC2
Activity [1]: Active | Activity [2]: Dose-Dependent Effect | Activity [3]: Dose-Dependent Effect | inhibition [4]: Dose-Dependent Effect | Kd [5]: 5.17 µM | inhibition [6]: inactive | Activity [7]: Active | inhibition [8]: inactive | inhibition [9]: inactive | Activity [10]: Dose-Dependent Effect | inhibition [11]: inactive
